“Also recorded” adds a separate entry of the source. Where two headings read alike, the source gives them in different places.
Assays:
newborn rats [1] = assay: Fentanyl-induced respiratory depression in rat pups (postnatal day 3-4), plethysmography; assay type: in vivo
[2] = test system: medullary slice (preBötC and XII motoneurons); design: species or system rat
newborn rats [3] = assay: Propofol-induced respiratory depression in newborn rats (P3); assay type: in vivo, rat
Description: In a further experiment, A85380 (0.03 mg/kg, ip) and propofol (30 mg/kg, ip) were co-administered in newborn rats in vivo (P3). In the control group, vehicle (saline) was administered with 30 mg/kg propofol (FIG. 6A). […] Without being bound by any theory, targeting of α4β2 nAChRs may be a potent means of alleviating the effects of drugs (e.g. propofol) causing respiratory depression via GABAA receptor mechanisms in vivo.

[4] = test system: brainstem-spinal cord in vitro preparations; assay: Brainstem-spinal cord in vitro preparation, respiratory rhythm (C4 / XII nerve recordings); design: species or system rat; settings: for fR in the presence of the antagonist: antagonist 400 nM
Description: Brainstem-spinal cord and medullary slice preparations were obtained from neonatal Sprague-Dawley rats. The rats were anesthetized with metofane, decerebrated, and the brainstem-spinal cord (BSSC) and medullary slice dissected (Smith et al., 1990; 1991). BSSC was continuously perfused with modified Krebs solution. A single rhythmic medullary slice was cut (500-650 μm thick) and continuously perfused with bathing solution. Inspiratory activity was recorded from the fourth ventral cervical nerve roots of BSSC or XII nerve rootlets of the medullary slice using an extracellular glass electrode.
Neonatal (postnatal day 1-3) rats were anesthetized with metofane, decerebrated and the brainstem-spinal cord dissected as previously reported. The neuraxis was continuously perfused at 27°±1° C. (5 ml/min; chamber volume, 3 ml) with modified Kreb's solution that contained 128 mM NaCl, 3.0 mM KCl, 1.5 mM CaCl2, 1.0 mM MgCl2, 23.5 mM NaHCO3, 0.5 mM NaH2PO4, and 30 mM d-glucose equilibrated with 95% O2-5% CO2 (pH 7.4).
A single transverse slice containing the preBötC and more caudal reticular formation regions was then cut (700 μm thick) from brainstem-spinal cord preparations perfused with a bathing solution identical to that used for B SSC preparation with the exception that the KCl concentration was increased to 9 mM to facilitate long-term generation of stable rhythm. Recordings from the fourth ventral cervical nerve roots of brainstem-spinal cord or hypoglossal nerve roots of medullary slice preparations were amplified, rectified, low-pass filtered, and recorded to a computer, using an analog-digital converter (Axon Instruments Digidata; Molecular Devices, Sunnyvale, Calif.) and data acquisition software (Axon Instruments AxoScope).

adult rats [5] = assay: Formalin test (licking and lifting) in adult rats; assay type: in vivo, rat
adult rats [6] = assay: Baseline ventilation after drug alone, plethysmography in adult rats; assay type: in vivo, rat; settings: for baseline minute ventilation: drug alone: A85380 0.03, Rivanicline 3, NS9283 10, PNU282987 1-15 mg/kg
adult rats [7] = settings: rat, in vivo, sc, 0.06 mg/kg
rat pups = settings: in vivo
[8] = test system: P0 rat brainstem-spinal cord preparation with C2 hemisection; assay: C2 hemisection spinal cord injury model, brainstem-spinal cord preparation, C4 recordings; settings: A85380 25 nM bath
Description: One of the primary causes of morbidity and mortality associated with spinal cord injury is loss of normal functioning of the respiratory musculature. This is caused by a reduced synaptic drive from respiratory rhythm generating centers onto respiratory spinal motoneurons. An in vitro newborn brainstem spinal cord rat model of spinal cord injury (Zimmer and Goshgarian, 2005) was used to test the efficacy of targeting α4β2 nAChRs to alleviate weak respiratory drive. […] Rectified and integrated signals were made from both C4 recordings from a P0 rat brainstem-spinal cord preparation showing the respiratory activity both contralateral (A: top traces) and ipsilateral (B: bottom traces) to one side C2 hemisection. There was a marked reduction in neural activity after the hemisection in ipsilateral nerve, but respiratory-like activity was still observed occasionally and was correlated with the respiratory activity on the contralateral nerve.

[9] = oral administration, compared with sazetidine-A (Kong et al. 2015); cited from earlier work
adult rats [10] = settings: rat, in vivo, iv
(α4)2(β2)3 receptors = (α4)2(β2)3 receptors (Homo sapiens, UniProt P17787+P43681); settings: Zwart et al., 2008; Carbone et al., 2009; cited from earlier work
(α4)2(β2)3 receptors, sequence (P43681 29-627 limits assumed): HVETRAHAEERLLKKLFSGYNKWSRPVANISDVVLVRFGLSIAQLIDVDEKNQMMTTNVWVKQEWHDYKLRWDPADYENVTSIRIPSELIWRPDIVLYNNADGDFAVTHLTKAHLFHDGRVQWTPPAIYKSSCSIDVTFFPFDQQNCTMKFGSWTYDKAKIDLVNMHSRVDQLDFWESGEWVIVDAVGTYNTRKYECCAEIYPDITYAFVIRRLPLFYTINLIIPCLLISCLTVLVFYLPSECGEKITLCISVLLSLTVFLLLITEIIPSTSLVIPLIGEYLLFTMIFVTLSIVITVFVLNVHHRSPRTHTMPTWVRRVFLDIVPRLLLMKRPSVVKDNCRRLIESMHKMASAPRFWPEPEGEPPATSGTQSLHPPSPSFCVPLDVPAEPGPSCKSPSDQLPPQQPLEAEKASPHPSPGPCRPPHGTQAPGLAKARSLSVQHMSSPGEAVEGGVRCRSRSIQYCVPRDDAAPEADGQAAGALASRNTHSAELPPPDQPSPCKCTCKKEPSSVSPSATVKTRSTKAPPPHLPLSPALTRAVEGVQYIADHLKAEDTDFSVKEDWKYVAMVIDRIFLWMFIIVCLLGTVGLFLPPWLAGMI
(α4)2(β2)3 receptors, sequence (P17787 26-502): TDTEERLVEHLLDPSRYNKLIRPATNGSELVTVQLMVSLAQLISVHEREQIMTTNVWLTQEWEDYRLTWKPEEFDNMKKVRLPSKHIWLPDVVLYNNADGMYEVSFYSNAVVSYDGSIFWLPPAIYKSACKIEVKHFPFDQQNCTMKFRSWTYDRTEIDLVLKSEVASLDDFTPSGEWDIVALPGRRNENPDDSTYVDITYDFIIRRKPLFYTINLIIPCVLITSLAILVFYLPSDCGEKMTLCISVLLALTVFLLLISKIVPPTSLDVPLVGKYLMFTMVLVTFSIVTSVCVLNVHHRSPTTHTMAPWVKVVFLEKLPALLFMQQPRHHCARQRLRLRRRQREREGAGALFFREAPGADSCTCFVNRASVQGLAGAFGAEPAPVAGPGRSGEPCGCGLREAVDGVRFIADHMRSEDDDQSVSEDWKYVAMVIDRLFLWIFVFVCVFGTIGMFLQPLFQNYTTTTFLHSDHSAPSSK

(α4)3(β2)2 receptors = (α4)3(β2)2 receptors (Homo sapiens, UniProt P17787+P43681); settings: Zwart et al., 2008; Carbone et al., 2009; cited from earlier work
(α4)3(β2)2 receptors, sequence (P43681 29-627 limits assumed): as the sequence (P43681 29-627 limits assumed) above
(α4)3(β2)2 receptors, sequence (P17787 26-502): as the sequence (P17787 26-502) above

CN1CCCC1CCc1ccc(S)cc1 (racemic) [SIB 1553A, (±)-4-[2-((N-methyl)-2-pyrrolidinyl)ethyl]thiophenol]
SIB 1553A effects with DHβE co-administered (newborn rats [1]; DHβE 6 mg/kg co-administration with fentanyl, SIB 1553A 40 mg/kg): only partially blocked | fentanyl-induced respiratory depression with mecamylamine co-administered (newborn rats [1]; fentanyl 35 μg/kg + mecamylamine 6 mg/kg, SIB 1553A 40 mg/kg): had no effects | fentanyl-induced decrease in tidal volume (VT) (newborn rats [1]; fentanyl 35 μg/kg, SIB 1553A 40 mg/kg sc): without marked effects | fentanyl-induced decrease in respiratory rate (fR) (newborn rats [1]; fentanyl 35 μg/kg, SIB 1553A 40 mg/kg sc 7 min later): partially reversed

c1cncc(OC[C@@H]2CCN2)c1 [A85380, 3-(2(s)-azetidinylmethoxy) pyridine]
DAMGO-induced suppression of fR [2]: alleviated | DAMGO-induced suppression of respiratory frequency and amplitude [2]: alleviated | baseline respiratory burst area [2]: decreased baseline respiratory burst area | baseline respiratory frequency [2]: increased respiratory frequency; also recorded: increased fR | loss of respiratory drive and motor output in low potassium [2]: potently reversed the loss of respiratory drive and motor output | respiratory amplitude [2]: decreased the respiratory amplitude | propofol-induced respiratory depression (newborn rats [3]; A85380 0.03 mg/kg ip co-administered with propofol 30 mg/kg ip): dramatically prevented | baseline fR [4]: increased baseline fR | baseline respiratory amplitude [4]: without marked effects | baseline respiratory frequency [4]: increased baseline respiratory frequency | concentrations at which baseline fR is increased [4]: above 5 nM | ethanol and pentobarbital-induced respiratory depression [4]: alleviated | reversal of DAMGO-induced respiratory depression (decrease in fR and burst area) [4]: clear reversal | reversal of DAMGO-induced respiratory depression (frequency and amplitude) [4]: clear reversal | weak respiratory rhythm and XII motor output [4]: increased respiratory frequency, amplitude and bursting duration | nocifensive response 20-40 minutes post formalin, baseline (adult rats [5]; rat, in vivo, sc, 0.06 mg/kg): decreased nocifensive response | baseline minute ventilation (adult rats [6]): 97.8±3.1 % of control | paw withdrawal latency to thermal stimuli, baseline (adult rats [7]): marked increase in paw withdrawal latency | significant alteration of baseline VE (rat pups): Neither | ipsilateral respiratory amplitude after C2 hemisection [8]: partially increased | respiratory frequency after C2 hemisection [8]: increased the respiratory frequency

C[C@@H](NC(=O)[C@@H](N)Cc1ccc(O)cc1)C(=O)NCC(=O)N(C)[C@@H](Cc1ccccc1)C(=O)NCCO [DAMGO, [D-Ala2, NMe-Phe4, Gly-ol5]-enkephalin]
effect of DAMGO on fR [2]: caused a suppression of fR | effect of DAMGO on respiratory frequency and amplitude [2]: induced suppression of respiratory frequency and amplitude | respiratory depression by DAMGO (fR and burst area) [4]: suppressed fR and burst area

CCN1C[C@]2(COC(=O)c3ccccc3N3C(=O)C[C@H](C)C3=O)CC[C@H](OC)[C@@]34[C@@H]5C[C@H]6[C@H](OC)[C@@H]5[C@](O)(C[C@@H]6OC)[C@](O)([C@@H](OC)[C@H]23)[C@@H]14 [MLA]
fR in the presence of the antagonist [4]: fR was slower

N#Cc1cccc(-c2nc(-c3cccnc3)no2)c1 [NS9283, 3-[3-(3-Pyridinyl)-1,2,4-oxadiazol-5yl]benzonitrile]
baseline respiratory amplitude ([4]; C4 discharge, A85380 25 nM, Rivanicline 0.5 μM, NS9283 15 μM): without marked effects | baseline respiratory frequency ([4]; C4 discharge, bath A85380 25 nM, Rivanicline 0.5 μM, NS9283 15 μM, PNU282987 up to 20 μM (Example 3)): increased baseline respiratory frequency | reversal of DAMGO-induced respiratory depression (frequency and amplitude) ([4]; bath after DAMGO: A85380 25 nM, Rivanicline 0.5 μM, NS9283 15 μM, PNU282987 1-20 μM (Example 3)): clear reversal | baseline minute ventilation (adult rats [6]): 103.3±4.2 % of control

O=C(N[C@H]1CN2CCC1CC2)c1ccc(Cl)cc1 [PNU282987]
baseline respiratory frequency [2]: had no effect | baseline fR [4]: very modest increase in fR | baseline respiratory frequency [4]: very modest increase in respiratory frequency | baseline minute ventilation (adult rats [6]): 102.9±4.1 % of control | significant alteration of baseline VE (rat pups): Neither

CNCC/C=C/c1cccnc1 [Rivanicline, (E)-N-Methyl-4-(3-pyridinyl)-3-butene-1-amine]
baseline respiratory amplitude [4]: without marked effects | baseline respiratory frequency [4]: increased baseline respiratory frequency | reversal of DAMGO-induced respiratory depression (frequency and amplitude) [4]: clear reversal | baseline minute ventilation (adult rats [6]): 98.4±3.6 % of control

C(#Cc1cncc(OC[C@@H]2CCN2)c1)c1ccccc1 [VMY-2-95, 3-[(2S)-2-Azetidinylmethoxy]-5-(2-phenylethynyl)-pyridine]
penetration of the blood-brain barrier [9]: better penetration of the blood-brain barrier | significant alteration of baseline VE (rat pups): Neither

CN1[C@@H](CC(=O)c2ccccc2)CCC[C@H]1C[C@H](O)c1ccccc1 [lobeline, 2-((2R,6S)-6-((S)-2-Hydroxy-2-phenylethyl)-1-methylpiperidin-2-yl)-1-phenylethanone]
nocifensive response, phase II (adult rats [5]; lobeline 3 mg/kg iv alone): tended to decrease the nocifensive response in the phase II, but the difference is not significant | nocifensive response, phase I (adult rats [5]; lobeline 3 mg/kg iv alone, formalin 30 min post lobeline): decreased nocifensive response | loss of righting reflex (adult rats [10]): 22.4 ± 7.3 min | VE (adult rats [6]; lobeline 3 mg/kg iv alone): 116.2±8.7 % of control | VE (adult rats [6]; lobeline 6 mg/kg ip alone): did not affect VE

CN1CCCC1c1cccnc1 (centres unmarked) [nicotine]
baseline fR [4]: caused an increase of baseline fR | concentrations at which baseline fR is increased [4]: above 200 nM | reversal of DAMGO-induced respiratory depression (decrease in fR and burst area) [4]: clear reversal | significant alteration of baseline VE (rat pups): Neither

CC(C)c1cccc(C(C)C)c1O [propofol]
duration of propofol respiratory depression (newborn rats [3]; propofol 30 mg/kg ip): over 30 minutes | onset of propofol respiratory depression (newborn rats [3]; propofol 30 mg/kg ip): ≤ 5 min | respiratory depression by propofol (newborn rats [3]; propofol 30 mg/kg ip with saline): marked depression of respiratory frequency and amplitude

OCCCCC#Cc1cncc(OC[C@@H]2CCN2)c1 [sazetidine-A, 6-[5-[(2S)-2-Azetidinylmethoxy]-3-pyridinyl]-5-hexyn-1-ol]
agonist activity ((α4)2(β2)3 receptors): full agonist activity | agonist activity ((α4)3(β2)2 receptors): nearly no agonist activity | significant alteration of baseline VE (rat pups): Neither

dihydro-beta-erythroidine [DHβE]
reversal of A85380 (25 nM) effects by antagonist ([2]; DHβE 200 nM subsequent bath application): reversed | fR in the presence of the antagonist [4]: fR was slower | significant alteration of baseline VE (rat pups): Neither

— patent publication US20210077478A1, “METHOD OF COUNTERING RESPIRATORY DEPRESSION VIA ACTIVATION OF NEURONAL HETEROMERIC NICOTINIC ACETYLCHOLINE RECEPTORS” (THE GOVERNORS OF THE UNIVERSITY OF ALBERTA, priority 2017, published 2021)
